Measurements: PubChem BioAssay AID1963432 (Molecular Pharmacology Branch, DTP, NCI, 2024)

Test system: SYO-1 complex spheroid growth, percent test/control
Test: Anticancer human tumor SYO-1 cell line growth inhibition [Asc];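 further: compound exposure lasted 7 days after spheroids grew 3 days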;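 on viability, T/C: 100% = DMSO vehicle control viability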
Settings: for IC50: curve of first compound; for viability, T/C: stronger effect = lower value
Outline: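 Concentration series start at each agent's clinical Cmax, or at 10 microM when none is established, and drop in half-log steps; agents are applied alone or together to complex spheroids built with HUVEC and hMSC.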

C#Cc1c(F)ccc2cc(O)cc(-c3ncc4c(N5CC6CCC(C5)N6)nc(OCC56CCCN5CC(F)C6)nc4c3F)c12 (configuration not stated) + Cc1c(S(C)(=O)=O)c(-c2cc(F)cc(N3CCN(c4ccc(NS(=O)(=O)c5ccc(NC(CCN6CCC(C(=O)OCCCP(=O)(O)O)CC6)CSc6ccccc6)c(S(=O)(=O)C(F)(F)F)c5)cc4)CC3)c2)c(-c2ccc(Cl)cc2)n1C(C)C was tested, and the IC50 (second compound 0.0316 µM) was > 10 µM, the IC50 (second compound 0.1 µM) was > 10 µM and the IC50 (second compound 0.316 µM) was > 10 µM. The IC50 (second compound 1 µM) was > 10 µM, the IC50 (second compound 3.16 µM) was > 10 µM and the IC50 (second compound 10 µM) was > 10 µM. For the same compound, the viability, T/C (second compound 0.0316 µM, first compound 0.0316 µM) was 93.6%, the viability, T/C (second compound 0.0316 µM, first compound 0.1 µM) was 101% and the viability, T/C (second compound 0.0316 µM, first compound 0.316 µM) was 89.2%. For the same compound, the viability, T/C (second compound 0.0316 µM, first compound 1 µM) was 99.9%, the viability, T/C (second compound 0.0316 µM, first compound 3.16 µM) was 102% and the viability, T/C (second compound 0.0316 µM, first compound 10 µM) was 99.3%. For the same compound, the viability, T/C (second compound 0.1 µM, first compound 0.0316 µM) was 92.4%, the viability, T/C (second compound 0.1 µM, first compound 0.1 µM) was 92.6% and the viability, T/C (second compound 0.1 µM, first compound 0.316 µM) was 90.6%. It also gave a viability, T/C (second compound 0.1 µM, first compound 1 µM) of 99.4%, a viability, T/C (second compound 0.1 µM, first compound 3.16 µM) of 101% and a viability, T/C (second compound 0.1 µM, first compound 10 µM) of 90.8%. For the same compound, the viability, T/C (second compound 0.316 µM, first compound 0.0316 µM) was 93.8%, the viability, T/C (second compound 0.316 µM, first compound 0.1 µM) was 85.2% and the viability, T/C (second compound 0.316 µM, first compound 0.316 µM) was 91%. It also gave a viability, T/C (second compound 0.316 µM, first compound 1 µM) of 102%, a viability, T/C (second compound 0.316 µM, first compound 3.16 µM) of 99.5% and a viability, T/C (second compound 0.316 µM, first compound 10 µM) of 87%. It also gave a viability, T/C (second compound 1 µM, first compound 0.0316 µM) of 92.7%, a viability, T/C (second compound 1 µM, first compound 0.1 µM) of 86.6% and a viability, T/C (second compound 1 µM, first compound 0.316 µM) of 88.2%. For the same compound, the viability, T/C (second compound 1 µM, first compound 1 µM) was 96.9%, the viability, T/C (second compound 1 µM, first compound 3.16 µM) was 96.1% and the viability, T/C (second compound 1 µM, first compound 10 µM) was 87%. The viability, T/C (second compound 3.16 µM, first compound 0.0316 µM) was 83.9%, the viability, T/C (second compound 3.16 µM, first compound 0.1 µM) was 84.5% and the viability, T/C (second compound 3.16 µM, first compound 0.316 µM) was 88.8%. For the same compound, the viability, T/C (second compound 3.16 µM, first compound 1 µM) was 92.3%, the viability, T/C (second compound 3.16 µM, first compound 3.16 µM) was 85.8% and the viability, T/C (second compound 3.16 µM, first compound 10 µM) was 84.1%. For the same compound, the viability, T/C (second compound 10 µM, first compound 0.0316 µM) was 78.2%, the viability, T/C (second compound 10 µM, first compound 0.1 µM) was 76.9% and the viability, T/C (second compound 10 µM, first compound 0.316 µM) was 81.1%. The viability, T/C (second compound 10 µM, first compound 1 µM) was 97.5%, the viability, T/C (second compound 10 µM, first compound 3.16 µM) was 75.8% and the viability, T/C (second compound 10 µM, first compound 10 µM) was 68.3%.
